# According to patent US11377442B2, “Small molecule agonists and antagonists of NR2F6 activity” (ZANDER THERAPEUTICS, INC., priority 2016, dated 2022):
# Like-named read-outs stand apart in the source and are kept apart here.
# How the values were obtained:
# Type in all cases: cell-based
# Renilla = Renilla signal in NR2F6 agonist screening, cmpd/DMSO; conditions: Renilla, F4
# NR2F6 LBD = biological target: T1, NR2F6 LBD (Homo sapiens, UniProt P10588); assay: NR2F6 LBD transient transfection; conditions: LBD
# T1 construct: expressed in transfected cells
# T1 sequence (P10588 165-393 limits assumed): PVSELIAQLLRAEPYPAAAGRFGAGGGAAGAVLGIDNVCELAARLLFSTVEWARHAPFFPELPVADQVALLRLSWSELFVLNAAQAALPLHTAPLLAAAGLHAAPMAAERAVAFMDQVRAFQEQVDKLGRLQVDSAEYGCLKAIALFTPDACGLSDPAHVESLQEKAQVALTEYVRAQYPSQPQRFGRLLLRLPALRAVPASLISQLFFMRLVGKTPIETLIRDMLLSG
# How it was run: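 LBD-transfected cells treated at 40, 10, 2 and 0.5 μM (4 replicates); cytotoxicity measured in parallel, normalized to DMSO (0%) and zero signal (100%). Higher concentrations excluded where signal loss reflected toxicity.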
# HEK293 pGL4 = assay: Firefly_pGL signal, cmpd/DMSO (pGL4 control cells); conditions: Homo sapiens
# NR2F6 = biological target: T2, NR2F6 (Homo sapiens, UniProt P10588); assay: NR2F6 agonist screening, Firefly signal cmpd/DMSO; conditions: for Activity, cmpd/DMSO: Table 31
# T2 construct: expressed in transfected cells; also transient transfection
# T2 sequence (P10588 1-404): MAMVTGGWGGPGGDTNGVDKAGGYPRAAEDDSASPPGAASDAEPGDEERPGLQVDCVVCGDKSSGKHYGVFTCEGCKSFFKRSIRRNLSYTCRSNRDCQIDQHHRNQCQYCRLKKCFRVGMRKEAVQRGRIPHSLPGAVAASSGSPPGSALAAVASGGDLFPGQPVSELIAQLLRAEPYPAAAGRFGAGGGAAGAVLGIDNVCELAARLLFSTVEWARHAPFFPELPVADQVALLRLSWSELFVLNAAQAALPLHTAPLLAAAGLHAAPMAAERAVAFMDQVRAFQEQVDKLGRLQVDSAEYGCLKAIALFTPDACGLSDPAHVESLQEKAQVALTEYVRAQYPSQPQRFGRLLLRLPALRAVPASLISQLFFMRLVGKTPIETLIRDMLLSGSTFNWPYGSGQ
# [1] = read-out: Renilla, F4, cmpd/DMSO (mean)
# [2] = 1% FBS, read-out: Renilla, F4, 1% FBS, cmpd/DMSO (mean)
# [3] = 10% FBS, read-out: Renilla, F4, 10% FBS, cmpd/DMSO (mean)
# [4] = HEK293, 0.5 uM, pGL4, read-out: Firefly pGL4, cmpd/DMSO (mean)
# [5] = HEK293, 2 uM, pGL4, read-out: Firefly pGL4, cmpd/DMSO (mean)
# [6] = HEK293, 10 uM, pGL4, read-out: Firefly pGL4, cmpd/DMSO (mean)
# [7] = HEK293, 40 uM, pGL4, read-out: Firefly pGL4, cmpd/DMSO (mean)
# [8] = HEK293, pGL4, 1% FBS, 0.5 uM, read-out: Firefly, pGL4, 1% FBS, cmpd/DMSO (mean)
# [9] = HEK293, pGL4, 1% FBS, 2 uM, read-out: Firefly, pGL4, 1% FBS, cmpd/DMSO (mean)
# [10] = HEK293, pGL4, 1% FBS, 10 uM, read-out: Firefly, pGL4, 1% FBS, cmpd/DMSO (mean)
# [11] = HEK293, pGL4, 1% FBS, 40 uM, read-out: Firefly, pGL4, 1% FBS, cmpd/DMSO (mean)
# [12] = HEK293, pGL4, 10% FBS, 0.5 uM, read-out: Firefly, pGL4, 10% FBS, cmpd/DMSO (mean)
# [13] = HEK293, pGL4, 10% FBS, 2 uM, read-out: Firefly, pGL4, 10% FBS, cmpd/DMSO (mean)
# [14] = HEK293, pGL4, 10% FBS, 10 uM, read-out: Firefly, pGL4, 10% FBS, cmpd/DMSO (mean)
# [15] = HEK293, pGL4, 10% FBS, 40 uM, read-out: Firefly, pGL4, 10% FBS, cmpd/DMSO (mean)
smiles,measurement,setting,value
O=S1(=O)C[C@H](N2CCCCC2)[C@@H](S(=O)(=O)c2cccs2)C1 [Compound D105],fold induction at 0.5 µM,Renilla; [1],1.1
same,fold induction at 2 µM,Renilla; [1],1.2
same,fold induction at 10 µM,Renilla; [1],1.7
same,fold induction at 40 µM,Renilla; [1],0.7
same,fold induction at 0.5 µM,Renilla; [2],1.1
same,fold induction at 2 µM,Renilla; [2],1.2
same,fold induction at 10 µM,Renilla; [2],2
same,fold induction at 40 µM,Renilla; [2],1.6
same,fold induction at 0.5 µM,Renilla; [3],1.1
same,fold induction at 2 µM,Renilla; [3],1.2
same,fold induction at 10 µM,Renilla; [3],2.1
same,fold induction at 40 µM,Renilla; [3],2.6
same,"Firefly LBD, cmpd/DMSO (mean)",NR2F6 LBD; 0.5 uM,1.2
same,"Firefly LBD, cmpd/DMSO (mean)",NR2F6 LBD; 2 uM,1.8
same,"Firefly LBD, cmpd/DMSO (mean)",NR2F6 LBD; 10 uM,3.8
same,"Firefly LBD, cmpd/DMSO (mean)",NR2F6 LBD; 40 uM,0.7
same,fold induction at 0.5 µM,HEK293 pGL4; [4],1.2
same,fold induction at 2 µM,HEK293 pGL4; [5],1.9
same,fold induction at 10 µM,HEK293 pGL4; [6],3.8
same,fold induction at 40 µM,HEK293 pGL4; [7],0.7
same,fold induction at 0.5 µM,HEK293 pGL4; [8],1.4
same,fold induction at 2 µM,HEK293 pGL4; [9],1.2
same,fold induction at 10 µM,HEK293 pGL4; [10],2.6
same,fold induction at 40 µM,HEK293 pGL4; [11],1.1
same,fold induction at 0.5 µM,HEK293 pGL4; [12],1.3
same,fold induction at 2 µM,HEK293 pGL4; [13],1.6
same,fold induction at 10 µM,HEK293 pGL4; [14],2.6
same,fold induction at 40 µM,HEK293 pGL4; [15],1.7
same,"Firefly F4, cmpd/DMSO (mean)",NR2F6; 0.5 uM,1.1
same,"Firefly F4, cmpd/DMSO (mean)",NR2F6; 2 uM,2.4
same,"Firefly F4, cmpd/DMSO (mean)",NR2F6; 10 uM,5.5
same,"Firefly F4, cmpd/DMSO (mean)",NR2F6; 40 uM,0.9
same,"F4, Firefly/Renilla for S/B(F4) > 3","NR2F6; 1% FBS, 10 uM",2.5
same,"Firefly, F4/pGL4 for S/B(F4) > 3","NR2F6; 1% FBS, 10 uM",1.9
same,"F4, Firefly/Renilla for S/B(F4) > 3","NR2F6; 10% FBS, 10 uM",4.3
same,"Firefly, F4/pGL4 for S/B(F4) > 3","NR2F6; 10% FBS, 10 uM",3.4
same,"F4, Firefly/Renilla for S/B(F4) > 3","NR2F6; 10% FBS, 40 uM",1.4
same,"Firefly, F4/pGL4 for S/B(F4) > 3","NR2F6; 10% FBS, 40 uM",2.1
same,"Firefly, F4, 1% FBS, cmpd/DMSO (mean)","NR2F6; 1% FBS, 0.5 uM",1.5
same,"Firefly, F4, 1% FBS, cmpd/DMSO (mean)","NR2F6; 1% FBS, 2 uM",1.7
same,"Firefly, F4, 1% FBS, cmpd/DMSO (mean)","NR2F6; 1% FBS, 10 uM",4.9
same,"Firefly, F4, 1% FBS, cmpd/DMSO (mean)","NR2F6; 1% FBS, 40 uM",0.3
same,"Firefly, F4, 10% FBS, cmpd/DMSO (mean)","NR2F6; 10% FBS, 0.5 uM",1.0
same,"Firefly, F4, 10% FBS, cmpd/DMSO (mean)","NR2F6; 10% FBS, 2 uM",1.5
same,"Firefly, F4, 10% FBS, cmpd/DMSO (mean)","NR2F6; 10% FBS, 10 uM",8.9
same,"Firefly, F4, 10% FBS, cmpd/DMSO (mean)","NR2F6; 10% FBS, 40 uM",3.6
same,"Activity, cmpd/DMSO",NR2F6,5.7
CC1CCN([C@H]2CS(=O)(=O)C[C@@H]2S(=O)(=O)c2cccs2)CC1 [Compound D106],fold induction at 0.5 µM,Renilla; [1],1
same,fold induction at 2 µM,Renilla; [1],1.2
same,fold induction at 10 µM,Renilla; [1],1.7
same,fold induction at 40 µM,Renilla; [1],0.5
same,fold induction at 0.5 µM,Renilla; [2],1.2
same,fold induction at 2 µM,Renilla; [2],1.4
same,fold induction at 10 µM,Renilla; [2],1.9
same,fold induction at 40 µM,Renilla; [2],1.1
same,fold induction at 0.5 µM,Renilla; [3],1.2
same,fold induction at 2 µM,Renilla; [3],1.1
same,fold induction at 10 µM,Renilla; [3],2
same,fold induction at 40 µM,Renilla; [3],2
same,"Firefly LBD, cmpd/DMSO (mean)",NR2F6 LBD; 0.5 uM,1.2
same,"Firefly LBD, cmpd/DMSO (mean)",NR2F6 LBD; 2 uM,1.7
same,"Firefly LBD, cmpd/DMSO (mean)",NR2F6 LBD; 10 uM,4.0
same,"Firefly LBD, cmpd/DMSO (mean)",NR2F6 LBD; 40 uM,0.7
same,fold induction at 0.5 µM,HEK293 pGL4; [4],1.1
same,fold induction at 2 µM,HEK293 pGL4; [5],1.6
same,fold induction at 10 µM,HEK293 pGL4; [6],3.6
same,fold induction at 40 µM,HEK293 pGL4; [7],0.7
same,fold induction at 0.5 µM,HEK293 pGL4; [8],1.1
same,fold induction at 2 µM,HEK293 pGL4; [9],1.8
same,fold induction at 10 µM,HEK293 pGL4; [10],2.8
same,fold induction at 40 µM,HEK293 pGL4; [11],0.8
same,fold induction at 0.5 µM,HEK293 pGL4; [12],0.9
same,fold induction at 2 µM,HEK293 pGL4; [13],1.2
same,fold induction at 10 µM,HEK293 pGL4; [14],2.7
same,fold induction at 40 µM,HEK293 pGL4; [15],1.2
same,"Firefly F4, cmpd/DMSO (mean)",NR2F6; 0.5 uM,1.5
same,"Firefly F4, cmpd/DMSO (mean)",NR2F6; 2 uM,2.3
same,"Firefly F4, cmpd/DMSO (mean)",NR2F6; 10 uM,5.4
same,"Firefly F4, cmpd/DMSO (mean)",NR2F6; 40 uM,0.8
same,"F4, Firefly/Renilla for S/B(F4) > 3","NR2F6; 1% FBS, 10 uM",2.5
same,"Firefly, F4/pGL4 for S/B(F4) > 3","NR2F6; 1% FBS, 10 uM",1.7
same,"F4, Firefly/Renilla for S/B(F4) > 3","NR2F6; 10% FBS, 10 uM",3.6
same,"Firefly, F4/pGL4 for S/B(F4) > 3","NR2F6; 10% FBS, 10 uM",2.7
same,"Firefly, F4, 1% FBS, cmpd/DMSO (mean)","NR2F6; 1% FBS, 0.5 uM",0.9
same,"Firefly, F4, 1% FBS, cmpd/DMSO (mean)","NR2F6; 1% FBS, 2 uM",1.9
same,"Firefly, F4, 1% FBS, cmpd/DMSO (mean)","NR2F6; 1% FBS, 10 uM",4.6
same,"Firefly, F4, 1% FBS, cmpd/DMSO (mean)","NR2F6; 1% FBS, 40 uM",0.5
same,"Firefly, F4, 10% FBS, cmpd/DMSO (mean)","NR2F6; 10% FBS, 0.5 uM",1.6
same,"Firefly, F4, 10% FBS, cmpd/DMSO (mean)","NR2F6; 10% FBS, 2 uM",1.4
same,"Firefly, F4, 10% FBS, cmpd/DMSO (mean)","NR2F6; 10% FBS, 10 uM",7.1
same,"Firefly, F4, 10% FBS, cmpd/DMSO (mean)","NR2F6; 10% FBS, 40 uM",1.7
same,"Activity, cmpd/DMSO",NR2F6,5.2
